Test results from patent US12263248B2, “Compounds and compositions for intracellular delivery of therapeutic agents” (ModernaTX, Inc., priority 2018, dated 2025).

Columns and labels:
[1] = Apparent (surface) pKa of the LNP formulation (TNS assay); type: physicochemical
Outline: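 LNP (0.04 mg/mL mRNA) mixed with TNS reagent in 21 buffers spanning about pH 3-12, in triplicate; fluorescence plotted against pH as sigmoidal curve. Apparent pKa taken as […] curve inflection point; validated in 1× PBS and 20 mM Tris w/8% sucrose.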

[2] = Particle size and polydispersity index of nanoparticle compositions (Zetasizer Nano ZS); type: physicochemical; settings: for PDI (Polydispersity index): lipid nanoparticle, ±SD within one assay run (Table 37)
Outline: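 In 1×PBS, the compositions were sized on a Zetasizer Nano ZS, which also reported their polydispersity index.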

[3] = Encapsulation efficiency of RNA (QUANT-IT RIBOGREEN RNA assay); type: physicochemical; settings: for % Encapsulation: lipid nanoparticle, ±SD within one assay run (Table 37)
Outline: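 RiboGreen fluorescence (ex ~480, em ~520 nm) compared between intact samples and Triton X-100-lysed samples after 15 min at 37 °C in TE buffer, pH 7.5. Percent free RNA is the blank-corrected intact/disrupted ratio.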

luciferase (Luc) mRNA = test: Luc expression, whole body bioluminescence after intravenous administration to mice; type: in vivo; settings: for Fold increase in total body Luc Flux relative to MC3 at 6 h: Table 3A, i.v. administration; for Total Flux 3 hours / Total Flux 6 hours / Total Flux 24 hours: Luc mRNA
Outline: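 Luc mRNA nanoparticle formulations given intravenously to mice (n=6) at 0.5 mg/kg; whole-body bioluminescence imaged at 3, 6 and 24 h. CD-1 mice received IP D-luciferin (200 μL of 15 mg/mL) 15 min before imaging; total flux quantified by region of interest.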

IL-6, IP-10 = test: Cytokine induction in mice upon intravenous administration; type: in vivo; set-up: Cytokine induction IL-6 / Cytokine induction IP-10: unit not given here; settings: 0.5 mpk, 6 hours; for Cytokine induction IL-6 / Cytokine induction IP-10: intravenous
Outline: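 Mice dosed intravenously with nanoparticle compositions at 0.5 mpk; serum cytokine concentrations (IL-6, IP-10) measured at 6 hours. MC3 formulation and PBS controls run alongside.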

[4] = lipid nanoparticle, ±SD within one assay run (Table 37)
[5] = Table 1A, lipid:DSPC:cholesterol:PEG-DMG 50:10:38.5:1.5 mol %
[6] = lipid:DSPC:Chol:PEG-DMG (50:10:38.5:1.5), hEPO mRNA
[7] = Table 1E, compositions for subcutaneous administration
[8] = Table 1B, formulated with hEPO mRNA
[9] = Table 1C, compositions for subcutaneous administration
[10] = Table 1D, for subcutaneous administration, # formulated with hEPO mRNA

Structure (SMILES): CCCCC/C=C\C/C=C\CCCCCCCCN(CCO)CCCCCCCC(=O)OC(CCCCCCCC)CCCCCCCC [Compound 6, Heptadecan-9-yl 8-((2-hydroxyethyl)((9Z,12Z)-octadeca-9,12-dien-1-yl)amino)octanoate]
- pKa ([1]; Table 1A): 6.32
- pKa [1, 4]: 6.32 ± 0.05
- PDI ([2]; Table 1A): 0.066
- Size (nm) [2, 5]: 73.1 nm
- PDI (Polydispersity index) [2]: 0.07 ± 0.05
- PDI [2, 6]: 0.082
- EE (%) ([3]; Table 1A): 97.60%
- % Encapsulation [3]: 97.6 ± 1.2%
- EE [3, 6]: 97.84%
- Fold increase in total body Luc Flux relative to MC3 at 6 h (luciferase (Luc) mRNA): 1.15
- Total Flux 3 hours (luciferase (Luc) mRNA; mice, i.v., 0.5 mg/kg): 5.38E+09
- Total Flux 6 hours (luciferase (Luc) mRNA; mice, i.v., 0.5 mg/kg): 7.60E+09
- Total Flux 24 hours (luciferase (Luc) mRNA; mice, i.v., 0.5 mg/kg): 7.69E+08
- luciferase activity relative to MC3 LNP control (luciferase (Luc) mRNA; mice, intravenous, 0.5 mg/kg (mRNA dose)): Equivalent expression to MC3 LNPs
- Average total flux (6 h, ffluc) (luciferase (Luc) mRNA; mice, intravenous, 6 h): 7.60 × 10^9
- Fold increase in average total flux relative to MC3 (luciferase (Luc) mRNA; mice, intravenous, 6 h): 1.15
- Cytokine induction IL-6 (IL-6, IP-10): 136.18
- Cytokine induction IP-10 (IL-6, IP-10): 316.01

Structure (SMILES): CCCCC/C=C\C/C=C\CCCCCCCCN(CCO)CCCCCCCC(=O)OCCCCCCCCC [Compound 136, Nonyl 8-((2-hydroxyethyl)((9Z,12Z)-octadeca-9,12-dien-1-yl)amino)octanoate]
- pKa ([1]; Table 1A): 6.95
- pKa [1, 4]: 6.95 ± 0.13
- PDI ([2]; Table 1A): 0.5
- Size (nm) [2, 5]: 140.4 nm
- PDI (Polydispersity index) [2]: 0.11 ± 0.05
- EE (%) ([3]; Table 1A): 90.9%
- % Encapsulation [3]: 90.9 ± 0.9%
- Total Flux 3 hours (luciferase (Luc) mRNA; mice, i.v., 0.5 mg/kg): 7.21E+08
- Total Flux 6 hours (luciferase (Luc) mRNA; mice, i.v., 0.5 mg/kg): 7.33E+08
- Total Flux 24 hours (luciferase (Luc) mRNA; mice, i.v., 0.5 mg/kg): 3.39E+07
- Cytokine induction IL-6 (IL-6, IP-10): 28.69
- Cytokine induction IP-10 (IL-6, IP-10): 887.91

Structure (SMILES): CCCCCCCCCOC(=O)CCCCCCCN(CCO)CCCCCCCCCC(=O)OC(CCCCCCCC)CCCCCCCC [Compound 23, Heptadecan-9-yl 10-((2-hydroxyethyl)(8-(nonyloxy)-8-oxooctyl)amino) decanoate]
- pKa ([1]; Table 1A): 6.84
- App. pKa ([1]; Table 3F): 6.88
- PDI ([2]; Table 1A): 0.09
- Size (nm) [2, 5]: 104.5 nm
- PDI [2, 7]: 0.13
- Size (nm) [2, 7]: 70.5 nm
- EE (%) ([3]; Table 1A): 92.68%
- % EE [3, 7]: 98%
- Total Flux 3 hours (luciferase (Luc) mRNA; mice, i.v., 0.5 mg/kg): 1.83E+09
- Total Flux 6 hours (luciferase (Luc) mRNA; mice, i.v., 0.5 mg/kg): 1.15E+09
- Total Flux 24 hours (luciferase (Luc) mRNA; mice, i.v., 0.5 mg/kg): 3.71E+08
- Cytokine induction IL-6 (IL-6, IP-10): 94.00
- Cytokine induction IP-10 (IL-6, IP-10): 1015.95

Structure (SMILES): CCCCCCCCCOC(=O)CCCCCCCN(CCCO)CCCCCCCC(=O)OC(CCCCCCCC)CCCCCCCC [Compound 19, Heptadecan-9-yl 8-((3-hydroxypropyl)(8-(nonyloxy)-8-oxooctyl)amino) octanoate]
- pKa ([1]; Table 1A): 6.78
- PDI ([2]; Table 1A): 0.17
- Size (nm) [2, 5]: 101.1 nm
- PDI [2, 7]: 0.13
- Size (nm) [2, 7]: 80.7 nm
- EE (%) ([3]; Table 1A): 97.21%
- % EE [3, 7]: 93%
- Fold increase in total body Luc Flux relative to MC3 at 6 h (luciferase (Luc) mRNA): 0.96
- Total Flux 3 hours (luciferase (Luc) mRNA; mice, i.v., 0.5 mg/kg): 3.38E+10
- Total Flux 6 hours (luciferase (Luc) mRNA; mice, i.v., 0.5 mg/kg): 3.56E+09
- Total Flux 24 hours (luciferase (Luc) mRNA; mice, i.v., 0.5 mg/kg): 4.68E+08
- IL-6 induction (IL-6, IP-10; i.v., in words): highest
- Cytokine induction IL-6 (IL-6, IP-10): 285.56
- Cytokine induction IP-10 (IL-6, IP-10): 1468.94

Structure (SMILES): CCCCCCCCCOC(=O)CCCCCCCN(CCO)CCCCCCCOC(=O)C(CCCCCCCC)CCCCCCCC [Compound 30, 7-((2-Hydroxyethyl)(8-(nonyloxy)-8-oxooctyl)amino)heptyl 2-octyldecanoate]
- pKa ([1]; Table 1A): 6.75
- Apparent pKa ([1]; Table 3G): 6.75
- PDI ([2]; Table 1A): 0.15
- Size (nm) [2, 5]: 59.4 nm
- PDI [2, 8]: 0.13
- Size (nm) [2, 8]: 76.3 nm
- PDI [2, 9]: 0.12
- Size (nm) [2, 9]: 81.7 nm
- PDI [2, 10]: 0.11
- Size (nm) [2, 10]: 89.8 nm
- EE (%) ([3]; Table 1A): 95.69%
- EE (%) [3, 8]: 96.32%
- % EE [3, 9]: 93.0%
- % EE [3, 10]: 93.1%
- Fold increase in total body Luc Flux relative to MC3 at 6 h (luciferase (Luc) mRNA): 2.49
- Novel lipid/MC3 ratio, 6 hr. timepoint, i.v. (luciferase (Luc) mRNA; luciferase, intravenous, relative to MC3, Table 3G): 2.49
- Novel lipid/MC3 expression ratio, 6 hr. time point, i.v. (luciferase (Luc) mRNA; luciferase, intravenous, relative to MC3 formulation): 2.49
- Total Flux 3 hours (luciferase (Luc) mRNA; mice, i.v., 0.5 mg/kg): 1.19E+10
- Total Flux 6 hours (luciferase (Luc) mRNA; mice, i.v., 0.5 mg/kg): 2.09E+10
- Total Flux 24 hours (luciferase (Luc) mRNA; mice, i.v., 0.5 mg/kg): 1.21E+09
- Cytokine induction IL-6 (IL-6, IP-10): 152.51
- Cytokine induction IP-10 (IL-6, IP-10): 1638.77

Structure (SMILES): CCCCCCCCCCCCCCN(CCO)CCCCCCCC(=O)OC(CCCCCCCC)CCCCCCCC [Compound 2, Heptadecan-9-yl 8-((2-hydroxyethyl)(tetradecyl)amino)octanoate]
- pKa ([1]; Table 1A): 6.73
- PDI ([2]; Table 1A): 0.14
- Size (nm) [2, 5]: 83.9 nm
- EE (%) ([3]; Table 1A): 93.88%
- Fold increase in total body Luc Flux relative to MC3 at 6 h (luciferase (Luc) mRNA): 1.31
- Total Flux 3 hours (luciferase (Luc) mRNA; mice, i.v., 0.5 mg/kg): 1.93E+10
- Total Flux 6 hours (luciferase (Luc) mRNA; mice, i.v., 0.5 mg/kg): 4.31E+10
- Total Flux 24 hours (luciferase (Luc) mRNA; mice, i.v., 0.5 mg/kg): 2.43E+09
- Cytokine induction IL-6 (IL-6, IP-10): 70.95
- Cytokine induction IP-10 (IL-6, IP-10): 468.86

Structure (SMILES): CCCCCCCCCOC(=O)CCCCCCCN(CCCCCCCC(=O)OC(CCCCCCCC)CCCCCCCC)C[C@H](C)O [Compound 12, Heptadecan-9-yl (S)-8-((2-hydroxypropyl)(8-(nonyloxy)-8-oxooctyl)amino)octanoate]
- pKa ([1]; Table 1A): 5.99
- PDI ([2]; Table 1A): 0.17
- Size (nm) [2, 5]: 116.7 nm
- EE (%) ([3]; Table 1A): 92.44%
- Total Flux 3 hours (luciferase (Luc) mRNA; mice, i.v., 0.5 mg/kg): 5.14E+09
- Total Flux 6 hours (luciferase (Luc) mRNA; mice, i.v., 0.5 mg/kg): 1.27E+10
- Total Flux 24 hours (luciferase (Luc) mRNA; mice, i.v., 0.5 mg/kg): 2.45E+08
- IL-6 induction (IL-6, IP-10; i.v., in words): lowest
- IP-10 induction (IL-6, IP-10; i.v., in words): lowest
- Cytokine induction IL-6 (IL-6, IP-10): 3.88
- Cytokine induction IP-10 (IL-6, IP-10): 32.03

Structure (SMILES): CCCCCCCCC(CCCCCCCC)OC(=O)CCCCCCCN(CCO)CCCCCC [Compound 5, Heptadecan-9-yl 8-(hexyl(2-hydroxyethyl)amino)octanoate]
- pKa ([1]; Table 1A): 6.84
- PDI ([2]; Table 1A): 0.21
- Size (nm) [2, 5]: 196.4 nm
- EE (%) ([3]; Table 1A): 77.07%
- Fold increase in total body Luc Flux relative to MC3 at 6 h (luciferase (Luc) mRNA): 0.005
- Total Flux 3 hours (luciferase (Luc) mRNA; mice, i.v., 0.5 mg/kg): 2.77E+08
- Total Flux 6 hours (luciferase (Luc) mRNA; mice, i.v., 0.5 mg/kg): 1.76E+08
- Total Flux 24 hours (luciferase (Luc) mRNA; mice, i.v., 0.5 mg/kg): 2.40E+07
- Cytokine induction IL-6 (IL-6, IP-10): 94.07
- Cytokine induction IP-10 (IL-6, IP-10): 487.16

Structure (SMILES): CCCCCCCCC(CCCCCCCC)OC(=O)CCCCCCCN(CCO)CCCCCCCC(=O)OCC1CC1CCCCCC (centres unmarked) [Compound 28, Heptadecan-9-yl 8-((8-((2-hexylcyclopropyl)methoxy)-8-oxooctyl)(2-hydroxyethyl)amino)octanoate]
- pKa ([1]; Table 1A): 6.04
- PDI ([2]; Table 1A): 0.20
- Size (nm) [2, 5]: 99.4 nm
- EE (%) ([3]; Table 1A): 97.03%
- Fold increase in total body Luc Flux relative to MC3 at 6 h (luciferase (Luc) mRNA): 2.46
- Total Flux 3 hours (luciferase (Luc) mRNA; mice, i.v., 0.5 mg/kg): 8.98E+10
- Total Flux 6 hours (luciferase (Luc) mRNA; mice, i.v., 0.5 mg/kg): 1.13E+11
- Total Flux 24 hours (luciferase (Luc) mRNA; mice, i.v., 0.5 mg/kg): 1.20E+09
- total flux at 3 hours (luciferase (Luc) mRNA; mice, i.v., 0.5 mg/kg, comparison in words): highest
- IL-6 induction (IL-6, IP-10; i.v., in words): lowest
- Cytokine induction IL-6 (IL-6, IP-10): 17.47
- Cytokine induction IP-10 (IL-6, IP-10): 283.13
